In ChEMBL document CHEMBL1201862, “PubChem BioAssay data set” (2004):
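A five-concentration, 48-hour dose response in 96-well plates underlies each endpoint, interpolated linearly between surrounding concentrations. GI50 is the concentration that inhibits growth by half.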 Active and inactive are the calls of the source. Rule as the data show it: active = GI50 up to about 1.1 µM and inactive = higher.

Tests used:
Experiment in all cases: NCI anticancer screen, dose series, 48 h
[1] = tested on: SK-MEL-5
[2] = tested on: M19-MEL
[3] = tested on: LXFL 529
[4] = tested on: SK-MEL-2
[5] = tested on: NCI-H226
[6] = tested on: SNB-75
[7] = tested on: SW-620
[8] = tested on: HCT-116
[9] = tested on: OVCAR-4
[10] = tested on: NCI-H522
[11] = tested on: SK-OV-3
[12] = tested on: MOLT-4
[13] = tested on: ACHN
[14] = tested on: NCI-H460
[15] = tested on: OVCAR-5
[16] = tested on: HL-60
[17] = tested on: A549
[18] = tested on: UACC-257
[19] = tested on: SK-MEL-28
[20] = tested on: NCI-H23
[21] = tested on: DLD-1
[22] = tested on: SN12C
[23] = tested on: RPMI-8226
[24] = tested on: EKVX
[25] = tested on: Malme-3M
[26] = tested on: U-251
[27] = tested on: UO-31
[28] = tested on: M14
[29] = tested on: OVCAR-8
[30] = tested on: CCRF-CEM
[31] = tested on: DMS-273
[32] = tested on: HOP-62
[33] = tested on: SNB-78
[34] = tested on: SF-268
[35] = tested on: HCT-15
[36] = tested on: CAKI-1
[37] = tested on: K562
[38] = tested on: SF-295
[39] = tested on: UACC-62
[40] = tested on: COLO 205
[41] = tested on: DMS-114
[42] = tested on: RXF 631
[43] = tested on: LOX IMVI
[44] = tested on: OVCAR-3
[45] = tested on: KM-20L2
[46] = tested on: HT-29
[47] = tested on: KM12
[48] = tested on: TK-10
[49] = tested on: 786-0
[50] = tested on: SF-539
[51] = tested on: XF498
[52] = tested on: IGROV-1
[53] = tested on: HCC 2998
[54] = tested on: SNB-19
[55] = tested on: HOP-92
[56] = tested on: A498
[57] = tested on: HOP-18
[58] = tested on: RXF 393
[59] = tested on: SR

Measured: GI50

C=C1C=CC2(Br)OC3CC(C)(Cl)C(Br)CC13C2(C)C (stereo not given)
23 µM: [35]
inactive: [1] 17.3 µM | [2] 21.5 µM | [3] 22.5 µM | [4] 17.6 µM | [5] 19.1 µM | [6] 25.2 µM | [7] 24.2 µM | [8] 15 µM | [9] 30.1 µM | [10] 15.4 µM | [11] 30.5 µM | [12] 16.9 µM | [13] 23.6 µM | [14] 22 µM | [15] 17.1 µM | [16] 15.2 µM | [17] 26.4 µM | [18] 18.5 µM | [19] 20 µM | [20] 19.1 µM | [21] 31.6 µM | [22] 18.9 µM | [23] 23.2 µM | [24] 24.5 µM | [25] 18.2 µM | [26] 18.8 µM | [27] 20.7 µM | [28] 21.2 µM | [29] 30.7 µM | [30] 25.1 µM | [31] 35.8 µM | [32] 23.1 µM | [33] 22.4 µM | [34] 30.1 µM | [36] 29.5 µM | [37] 17.9 µM | [38] 20.4 µM | [39] 17.8 µM | [40] 16.1 µM | [41] 17.2 µM | [42] 23 µM | [43] 18.9 µM | [44] 20 µM | [45] 21.9 µM | [46] 18.1 µM | [47] 24.4 µM | [48] 37.2 µM | [49] 33.8 µM | [50] 18.5 µM | [51] 13.3 µM | [52] 28.9 µM | [53] 20.4 µM | [54] 27 µM | [55] 21.2 µM | [56] 22.3 µM

COc1ccc2c(c1OC)C(=O)c1cnccc1C2=O
inactive: [1] > 100 µM | [2] > 100 µM | [3] > 100 µM | [4] > 100 µM | [5] > 100 µM | [6] > 100 µM | [7] > 100 µM | [8] > 100 µM | [9] > 100 µM | [10] > 100 µM | [11] > 100 µM | [12] > 100 µM | [13] > 100 µM | [14] > 100 µM | [15] > 100 µM | [16] > 100 µM | [17] > 100 µM | [57] > 100 µM | [18] > 100 µM | [58] 24.9 µM | [19] > 100 µM | [20] > 100 µM | [21] > 100 µM | [22] > 100 µM | [23] > 100 µM | [24] > 100 µM | [25] > 100 µM | [26] > 100 µM | [27] > 100 µM | [28] > 100 µM | [29] > 100 µM | [30] > 100 µM | [31] > 100 µM | [32] > 100 µM | [33] > 100 µM | [36] > 100 µM | [37] > 100 µM | [38] > 100 µM | [39] > 100 µM | [40] > 100 µM | [41] > 100 µM | [42] > 100 µM | [43] > 100 µM | [44] > 100 µM | [45] > 100 µM | [46] > 100 µM | [47] > 100 µM | [48] > 100 µM | [49] > 100 µM | [50] > 100 µM | [51] > 100 µM | [52] > 100 µM | [53] > 100 µM | [59] > 100 µM | [54] > 100 µM | [55] > 100 µM
> 100 µM: [35]

COc1ccc(C(c2ccccc2)(c2ccc(OC)cc2)N2C(=O)NC3C(CCCCC(=O)NCCCCCCOP(OCCC#N)N(C(C)C)C(C)C)SCC32)cc1 (stereo not given)
18 µM: [35]
inactive: [1] 15.3 µM | [2] 16.8 µM | [3] 11.9 µM | [4] 11.6 µM | [5] 15 µM | [7] 19.8 µM | [8] 12 µM | [9] 17.9 µM | [10] 12.7 µM | [11] > 10 µM | [12] 7.57 µM | [13] 16.3 µM | [14] 16.8 µM | [15] > 10 µM | [16] 12.1 µM | [17] 20.3 µM | [57] 11.8 µM | [18] 19.3 µM | [58] 11.7 µM | [19] 15 µM | [20] 17 µM | [21] 14.8 µM | [23] 8.34 µM | [24] 21.5 µM | [25] 17.8 µM | [26] 15 µM | [27] 14.3 µM | [28] 18.4 µM | [29] 29.2 µM | [30] 9.12 µM | [31] 12.7 µM | [32] 17.6 µM | [33] 16.2 µM | [34] 15.2 µM | [37] 7.62 µM | [38] 17.1 µM | [39] 10.9 µM | [40] 21.6 µM | [41] 17.7 µM | [42] 4.06 µM | [43] 11.8 µM | [44] 14.8 µM | [45] 17.1 µM | [46] 14.6 µM | [47] 16.2 µM | [48] 18 µM | [49] 18.1 µM | [50] 14.5 µM | [51] 15.8 µM | [52] 18.7 µM | [53] 16.6 µM | [59] 8.07 µM | [55] 19.5 µM | [56] 17.2 µM

O=C(/C=C1\Nc2ccccc2C(=O)N1c1ccccc1Cl)c1ccccc1
inactive: [1] > 100 µM | [2] > 100 µM | [3] > 100 µM | [4] > 100 µM | [5] > 100 µM | [6] 32.7 µM | [7] > 100 µM | [8] 36.5 µM | [9] 67.5 µM | [10] > 100 µM | [11] > 100 µM | [12] 76.4 µM | [13] > 100 µM | [14] > 100 µM | [15] > 100 µM | [16] 47 µM | [17] 87.5 µM | [57] > 100 µM | [18] > 100 µM | [58] > 100 µM | [19] > 100 µM | [20] > 100 µM | [21] > 100 µM | [22] > 100 µM | [24] > 100 µM | [25] > 100 µM | [26] > 100 µM | [27] > 100 µM | [28] > 100 µM | [29] > 100 µM | [30] > 100 µM | [31] > 100 µM | [32] > 100 µM | [33] > 100 µM | [34] > 100 µM | [36] > 100 µM | [37] 87.5 µM | [38] > 100 µM | [39] > 100 µM | [40] > 100 µM | [41] 86.3 µM | [42] > 100 µM | [43] > 100 µM | [44] 88.9 µM | [45] > 100 µM | [46] 64.7 µM | [47] 84.1 µM | [48] > 100 µM | [49] > 100 µM | [50] > 100 µM | [52] > 100 µM | [53] > 100 µM | [59] > 100 µM | [54] > 100 µM | [55] 17.9 µM | [56] > 100 µM
> 100 µM: [35]
